Common to all, as to experiment: Determination of the minimum inhibitory concentration (MIC value) in microtitre plates
One experiment relates to P. aeruginosa. It counts as cell-based, Pseudomonas aeruginosa CIP A-22. To be noted: Pseudomonas aeruginosa; optical density at 620 nm, 48 hours at 37° C., MIC = ≦20% growth; tested at 100; 10 and 1 ppm (approximate values); (2), (3), (4) at 120; 60; 30; 15; 7.5; 3.75 ppm. Summed up: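 P. aeruginosa CIP A-22 at 1−5×10^6 KBE/ml, diluted 1:100 in CASO bouillon, exposed to 1:2 serial dilutions of DMSO-dissolved compound for 48 h at 37 °C, in duplicate. Growth read by OD 620 nm; MIC is the lowest concentration giving ≤20% growth relative to growth control.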

The test system of another experiment is C. albicans. It counts as cell-based, Candida albicans ATCC 10231. The conditions noted are these: Candida albicans; optical density at 620 nm, 48 hours at 37° C., MIC = ≦20% growth; tested at 100; 10 and 1 ppm (approximate values); (2), (3), (4) at 120; 60; 30; 15; 7.5; 3.75 ppm. Summed up:
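Candida albicans ATCC 10231 grown overnight in CASO broth, adjusted to 1–5×10^6 CFU/ml then diluted 1:100, was exposed to 1:2 serial dilutions of compound (DMSO) for 48 h at 37 °C. Growth was read as OD620; MIC was the concentration giving ≤20% growth versus control, tested in duplicate.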

A further experiment has as its system A. niger. It counts as cell-based, Aspergillus niger ATCC 6275. The conditions noted are these: Aspergillus niger, 120 h; optical density at 620 nm, 5 days at 28° C., MIC = ≦20% growth; tested at 100; 10 and 1 ppm (approximate values); (2), (3), (4) at 120; 60; 30; 15; 7.5; 3.75 ppm. An outline of the steps:
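A. niger ATCC 6275 spores, adjusted to 1−5×10^6 KBE/ml and diluted 1:100 in Sabouraud 2% glucose bouillon, were exposed to 2-fold dilutions of DMSO-dissolved compounds for 5 days at 28°C. Growth read as OD at 620 nm. MIC is the lowest concentration giving ≤20% growth versus growth control, tested in duplicate.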

One may read the MIC as the least concentration at which growth counts as inhibited. Low readings indicate inhibition by little substance, high ones a need for much substance. As for `Oc1ccc(/C=C/c2nc(-c3ccc(F)cc3)cs2)cc1` [Compound of formula (2)], the MIC is above 100 µg/mL in the experiment on P. aeruginosa, 30 µg/mL in the experiment on C. albicans and above 100 µg/mL against A. niger.

Consider `CC(C)(C)c1csc(/C=C/c2ccccc2O)n1` [Compound of formula (3)], for which the MIC against P. aeruginosa, in the experiment on C. albicans and in the experiment on A. niger was above 100 µg/mL in each case.

Take `Oc1ccc(/C=C/c2nc(-c3ccccc3)cs2)cc1` [Compound of formula (4)]: the results for the MIC in the experiment with P. aeruginosa, with C. albicans and with A. niger were above 100 µg/mL, 30 µg/mL and above 100 µg/mL, respectively.
